Source: article PMC10821532, “Sex and Cross-Sex Testosterone Treatment Alters Gamma-Hydroxybutyrate Acid Toxicokinetics and Toxicodynamics in Rats” (Pharmaceutics, 2024)

What was measured:
[1] = Plasma testosterone level after 21 days of testosterone pellet treatment (LC-MS); assay type: in vivo, Sprague Dawley rats; settings: Sprague Dawley, rat, sc, 7.5 mg 60-day release testosterone pellet s.c.
Procedure: (§1) Male and female Sprague Dawley (SD) rats, ovariectomized (OVX) females, and castrated (CST) males were obtained from Charles River (Wilmington, MA, USA) at 8 weeks of age. The animals were housed under controlled temperature and humidity with an artificial 12 h light/dark cycle, and food and water were available ad libitum. The animals were acclimatized for at least one week before experiments. Hormone treatment was conducted by implanting OVX female and CST male rats subcutaneously with 60-day release pellets containing 7.5 mg testosterone or corresponding placebo pellets (Innovative Research of America) at 10 weeks of age. After 21 days of hormone exposure, rats were utilized in toxicokinetic studies. Age-matched male and female rats were used as control groups. Female rats in the estrus stage were selected for the study. Estrus cycle stages of female rats were monitored daily by vaginal lavage smear, as described in previously published literature. The Institutional Animal Care and Use Committee (IACUC) at the University of the Pacific approved all experiments.
Testosterone plasma concentrations were quantified using a validated LC-MS assay, as described previously. […] The same LC/MS/MS equipment was used for quantification, as mentioned above. […]

[2] = GHB toxicokinetic study, i.v. bolus, plasma and urine up to 8 h, noncompartmental analysis; assay type: in vivo, Sprague Dawley rats; settings: 1 mg/kg AR-C 155858 iv 5 min after 1500 mg/kg GHB iv vs GHB alone
Procedure: as §1
(§2) Jugular vein cannulas were surgically implanted under anesthesia with ketamine/xylazine. Cannulas were flushed daily with heparinized saline to maintain patency. Rats were allowed a minimum of 72 h for recovery from surgery before the experiments were conducted. GHB was administered intravenously as a 1000 mg/kg i.v. bolus or 1500 mg/kg iv bolus with or without AR-C155858 (1 mg/kg i.v. bolus) via a jugular vein cannula to the animals at 13 weeks of age (N = 5–7 per group). Rats were dosed in metabolic cages with ad libitum access to water to allow for the concurrent collection of blood and urine samples for up to 8 h. GHB was administered as a 300 mg/mL solution in sterile water, and the time of administration was considered as time 0. AR-C155858 was administered as a 1 mg/mL solution in 10% cyclodextrin in normal saline 5 min after GHB administration. Blood samples (200 μL) were taken from the jugular vein cannula at different time points: 5, 10, 20, 30, 60, 90, 120, 180, 240, 270, 300, and 330 min for 1000 mg/kg and 10, 30, 60, 90, 120, 180, 240, 270, 300, 330, 360, and 390/480 min for 1500 mg/kg bolus with or without AR-C155858. Plasma samples were separated by centrifugation and stored at −20 °C. Urine samples were collected at 120, 240, and 360 min for 1000 mg/kg and 120, 240, and 390/480 min for 1500 mg/kg bolus with or without AR-C155858 post-dose; the total urine volume was determined, and the samples were stored at −20 °C.
GHB in plasma and urine were quantified using a validated liquid chromatography/tandem mass spectrometry (LC/MS/MS) assay that was described previously. Briefly, for the preparation of plasma standards and quality controls (QCs), 5 μL of GHB-d6 and 5 μL of standard stock solution or QC stock solution were added to 45 μL of blank plasma. For each unknown plasma sample, 5 μL of GHB-d6 was added to 50 μL of plasma. Protein precipitation was then performed by the addition of 800 μL of acetonitrile with 0.1% formic acid, followed by centrifugation at 10,000 rpm for 20 min. 750 μL of the supernatant was transferred to a clean disposable glass tube and evaporated using a MultiVap Nitrogen Evaporator (Organomation, Berlin, MA, USA) under a nitrogen stream. Dried samples were reconstituted in 250 μL of 95:5 double-distilled water—acetonitrile with 0.1% acetic acid. For urine standards and QCs, 25 μL of blank urine, 5 μL of standard or QC stock solution, 5 μL of GHB-d6, and 465 μL of double-distilled water were mixed. For unknown urine samples, 25 μL of the sample was added to 5 μL of GHB-d6 and 470 μL of double-distilled water. The same LC/MS/MS method was used for GHB plasma and urine analyses. LC/MS/MS equipment consisted of an Agilent 1200 series UPLC consisting of an online degasser, binary pump, and autosampler (Agilent Technologies, Santa Clara, CA, USA) connected to a Agilent 6460 Triple Quad Mass Spectrometer. […]

[3] = tested on: Sprague Dawley (SD) rats; test: Sedative/hypnotic effect (sleep time, RRR-LRR) after i.v. GHB; assay type: in vivo
Procedure: as §2
The sedative/hypnotic effects (sleep time) were determined, as described in a previous publication. The sedative/hypnotic duration effect of GHB was determined as the difference between the offset of the sedative/hypnotic effect (RRR) and the onset of the sedative/hypnotic effect (LRR).

[4] = biological target: MCT2; set-up: method as in PMID 19929853; settings: cited from earlier work
[5] = tested on: MCT4; set-up: method as in PMID 19929853; settings: cited from earlier work

Row | Structure (SMILES) | concentration at 21 days ([1]; female, OVX rats) [ng/mL] | concentration at 21 days ([1]; male, CST rats) [ng/mL] | Effect of AR-C 155858 on GHB fe [2] | Effect of AR-C 155858 on GHB metabolic clearance [2] | Effect of AR-C 155858 on GHB renal clearance [2] | Effect of AR-C155858 on GHB AUC ([2]; all animal groups) | Effect of AR-C155858 on GHB total clearance ([2]; all animal groups) | Effect of AR-C 155858 on GHB sleep time ([3]; 1 mg/kg AR-C 155858 iv 5 min after 1500 mg/kg GHB iv vs GHB alone) | Sleep time after AR-C 155858 administration ([3]; 1500 mg/kg GHB iv + 1 mg/kg AR-C 155858 iv 5 min after GHB, all populations) [min] | Ki [4] [µM] | Inhibitory effect on MCT4 [5]
1 | C[C@]12CC[C@H]3[C@@H](CCC4=CC(=O)CC[C@@]43C)[C@@H]1CC[C@@H]2O [Testosterone, testosterone] | 6.22 ± 2.63 | 5.44 ± 1.96 | – | – | – | – | – | – | – | – | –
2 | Cc1n[nH]c(C)c1Cc1sc2c(c1C(=O)N1C[C@H](O)CO1)c(=O)n(C)c(=O)n2CC(C)C [AR-C 155858, 6-[(3,5-Dimethyl-1H-pyrazol-4-yl)methyl]-5-[[(4S)-4-hydroxy-2-isoxazolidinyl]carbonyl]-3-methyl-1-(2-methylpropyl)thieno [2,3-d]pyrimidine-2,4(1H,3H)-dione] | – | – | significantly increased fe in testosterone-treated animal groups | did not yield any statistically significant differences in metabolic clearance across all animal groups, except in intact males | statistically significant increase in renal clearance across all animal groups, except for intact males | lower AUC | higher total clearance | significant reduction in sleep time across all animal groups | 0 to 38 | ~0.01 | no inhibitory effect on MCT4
